Test results published in patent US10123985B2, “Therapeutic strategies for treating mitochondrial disorders” (Whitehead Institute for Biomedical Research, priority 2015, dated 2018).
“Also recorded” adds a separate entry of the source.

Legend:
143B cells [1] = assay: Measurement of NAD+/NADH (NAD/NADH Glo) in 143B cells with respiration inhibitors; type: cell-based; settings: oligomycin with or without FCCP
Description: NAD^+/NADH measurements were done using a modified version of manufacturer instructions of NAD/NADH Glo Assay (Promega). Cells were plated and treated as for proliferation assays and cell extracts were taken 6 hours after treatment. For extraction, cells were quickly washed 3 times in ice cold PBS, extracted in 100 μL ice cold lysis buffer (1% Dodecyltrimethylammonium bromide (DTAB) in 0.2 N NaOH diluted 1:1 with PBS), and immediately frozen at −80° C. To measure NADH, 20 μL of sample was moved to PCR tubes and incubated at 75° C. for 30 min, where the basic conditions will selectively degrade NAD^+. To measure NAD^+, 20 μL of the samples was moved to PCR tubes containing 20 μL lysis buffer and 20 μL 0.4 N HCl and incubated at 60° C. for 15 min, where acidic conditions will degrade NADH. Following incubations, samples were allowed to equilibrate to room temperature and then quenched by neutralizing with 20 μL 0.25 M Tris in 0.2 N HCl (NADH) or 20 μL 0.5 M Tris base (NAD^+). Manufacturer instructions were followed thereafter to measure NAD^+/NADH.

143B cells [2] = assay: Proliferation assay of wild-type 143B cells treated with respiration inhibitors; type: cell-based; settings: oligomycin with or without FCCP
Description: 143B, A172, H1299, HeLa, U87 and MEF cells were cultured in Dulbecco's Modified Eagle's Medium (DMEM) (Gibco) supplemented with 10% fetal bovine serum (FBS) and penicillin-streptomycin. FL5.12 cells were cultured in the same medium and supplemented with 5 μg/mL recombinant mouse IL-3 (R&D Systems). 143B cybrid cell lines (WT Cybrid and CytB) were cultured in DMEM with 10% FBS, penicillin-streptomycin, and 0.1 mg/mL uridine. All cells incubated at 37° C. with 5% CO2.
(§1) Adherent cell lines growing in log phase were trypsinized, counted, and plated onto 6 well dishes (Corning) in 2 mL complete DMEM and incubated overnight. Initial seeding density was 2E4 cells per well for 143B, A172, H1299, HeLa, 143B WT Cybrid, and MEFs and 3E4 cells for 143B CytB and U87 cells. The following day, one plate of cells was counted to determine the initial cell count at the time of treatment. Cells were washed 2 times with 2 mL phosphate buffered saline (PBS) and 4 mL media premixed with the indicated treatments was added. FL5.12 cells, a suspension cell line, were washed 2 times in PBS and added directly to media containing the indicated treatments and 5 μg/mL recombinant mouse IL-3. Proliferation rate assay media was DMEM without pyruvate containing 10% dialyzed FBS, penicillin-streptomycin, and 0.1 mg/mL uridine, unless otherwise noted. For these cell lines at these seeding densities it was determined that for 4 days the cells maintained logarithmic proliferation (data not shown), therefore final cell counts were measured 4 days after treatment. Cells were counted using Cellometer Auto T4 Plus Cell Counter (Nexcelom Bioscience). Proliferation rate was determined using the following formula: Proliferation Rate (Doublings per day)=(log2(Final cell count (day 5)/Initial cell count (day 1))/4 (days)

143B cells [3] = assay: Mitochondrial oxygen consumption (Seahorse XF24), cells treated with respiration inhibitors; type: cell-based; settings: oligomycin with or without FCCP
Description: Oxygen consumption rates were determined on a Seahorse Bioscience Extracellular Flux Analyzer (XF24). Cells were plated in Seahorse Bioscience 24 well plates at 6E4 cells per well in 100 μL complete DMEM, allowed to attach for 1 hour, and 500 μl complete DMEM was added before overnight incubation. The following day cells were washed 2 times in assay media: DMEM without phenol red or pyruvate containing 0.5% dialyzed FBS and 0.1 mg/mL uridine at pH 7.4 and incubated in 500 μL of the same media for the assay.

143B CytB cells [4] = assay: Cell cycle distribution by propidium iodide flow cytometry; type: cell-based; settings: 143B CytB cells, 100 μM adenine, 78 hours
Description: 143B CytB cells were incubated in untreated media or media containing AKB or 100 μM adenine for 78 hours before being washed with PBS, trypsinized, pelleted, and resuspended in 500 μL PBS. Cells were fixed by adding 4.5 mL 70% ethanol and incubated at 4° C. overnight. The following day cells were pelleted and resuspended in 1 mL PBS+0.1% (v/v) Triton X-100. RNase A and then propidium iodide (PI) were added to 0.2 mg/mL and 20 μg/mL, respectively. Samples were incubated at 37° C. for 15 minutes and filtered into a flow cytometry tube. DNA content was measured by flow cytometry (BD FACS Canto II) and analyzed (FACS Diva Software).

143B CytB cells [5] = assay: Proliferation assay of respiration-incompetent 143B CytB cybrid cells; type: cell-based; settings: media supplemented with the substance; no pyruvate unless tested, uridine present
Description: FL5.12 cells were cultured in the same medium and supplemented with 5 μg/mL recombinant mouse IL-3 (R&D Systems). […] All cells incubated at 37° C. with 5% CO2.
as §1, with “Initial seeding density was 2E4 cells per well for 143B, A172, H1299, HeLa, 143B WT Cybrid, and MEFs and 3E4 cells for 143B CytB and U87 cells.” left out, “For these cell lines at these seeding densities it was determined that for 4 days the cells maintained logarithmic proliferation (data not shown), therefore final cell counts were measured 4 days after treatment.” left out

Jurkat cells [6] = assay: Metabolite profiling (LC/MS) of Jurkat cells; type: cell-based, human
Description: (§2) LC/MS analyses were conducted on a QExactive benchtop orbitrap mass spectrometer equipped with an Ion Max source and a HESI II probe, which was coupled to a Dionex UltiMate 3000 UPLC system (Thermo Fisher Scientific, San Jose, Calif.). External mass calibration was performed using the standard calibration mixture every 7 days.
Polar metabolites were extracted using 1 ml of ice-cold 80% methanol with 10 ng/ml valine-d8 as an internal standard. After a 10 min vortex and centrifugation for 10 min at 4° C. at 10,000 g, samples were dried under nitrogen gas. Dried samples were stored at −80° C. and then resuspended in 100 μL water; 1 μl of each sample was injected onto a ZIC-pHILIC 2.1×150 mm (5 μm particle size) column (EMD Millipore). Buffer A was 20 mM ammonium carbonate, 0.1% ammonium hydroxide; buffer B was acetonitrile. The chromatographic gradient was run at a flow rate of 0.150 ml/min as follows: 0-20 min.: linear gradient from 80% to 20% B; 20-20.5 min.: linear gradient from 20% to 80% B; 20.5-28 min.: hold at 80% B. The mass spectrometer was operated in fullscan, polarity switching mode with the spray voltage set to 3.0 kV, the heated capillary held at 275° C., and the HESI probe held at 350° C. The sheath gas flow was set to 40 units, the auxiliary gas flow was set to 15 units, and the sweep gas flow was set to 1 unit. The MS data acquisition was performed in a range of 70-1000 m/z, with the resolution set at 70,000, the AGC target at 106, and the maximum injection time at 80 msec. Relative quantitation of polar metabolites was performed with XCalibur QuanBrowser 2.2 (Thermo Fisher Scientific) using a 5 ppm mass tolerance and referencing an in-house library of chemical standards.

Jurkat cells [7] = assay: [U-13C]-L-glutamine isotope tracing of aspartate in Jurkat cells; type: cell-based, human; settings: phenformin (10 μM)
Description: as §2
Polar metabolites were extracted using 1 ml of ice-cold 80% methanol with 10 ng/ml valine-d8 as an internal standard. After a 10 min vortex and centrifugation for 10 min at 4° C. at 10,000 g, samples were dried under nitrogen gas. Dried samples were stored at −80° C. and then resuspended in 100 μL water; 1 μl of each sample was injected onto a ZIC-pHILIC 2.1×150 mm (5 μm particle size) column (EMD Millipore). Buffer A was 20 mM ammonium carbonate, 0.1% ammonium hydroxide; buffer B was acetonitrile. […] Relative quantitation of polar metabolites was performed with XCalibur QuanBrowser 2.2 (Thermo Fisher Scientific) using a 5 ppm mass tolerance and referencing an in-house library of chemical standards.

Jurkat cells [8] = assay: Proliferation assay (Cell Titer Glo, 5 days) of wild type and knock-out Jurkat cells; type: cell-based, human
Description: sgRNAs (oligonucleotide sequences are indicated above) were cloned into lentiCRISPR-v1 linearized with BsmBI by Gibson Assembly (NEB). sgRNA expressing vector along with lentiviral packaging vectors Delta-VPR and CMV VSVG were transfected into HEK-293T cells using the XTremeGene 9 transfection reagent (Roche). Similarly, for overexpression cell lines, cDNA vectors along with retroviral packaging vectors gag-pol and CMV VSV-G were transfected into HEK-293T cells. Media was changed 24 hours after transfection.

[9] = system: Raji lymphoma and KMS-26 multiple myeloma cells; type: cell-based, human; settings: 5-day treatment
Description: […]. Media was changed 24 hours after transfection.

Jurkat cells [10] = assay: Seahorse oxygen consumption of Jurkat cells; type: cell-based, human; settings: phenformin (10 μM), wild type and GOT1 null
Description: Oxygen consumption of intact cells was measured using an XF24 Extracellular Flux Analyzer (Seahorse Bioscience). For Jurkat cells, seahorse plates were coated with cell TAK (BD, 0.02 mg/ml in […] NaHO3) for 20 minutes to increase adherence of suspension cells. 200,000 cells were then attached to the plate by centrifugation at 2,200 rpm without brakes for 5 min. RPMI 8226 (US biological #9011) assay media was used as previously described (Birsoy et al., 2014). For basal oxygen consumption measurements the cell number was used to normalize.

[11] = GOT1-null Jurkat cells, 24-hour phenformin

## N#CC(C#N)=NNc1ccc(OC(F)(F)F)cc1 [FCCP, carbonyl cyanide-4-(trifluoromethoxy)phenylhydrazone, reference compound]
143B cells [1]
  NAD+/NADH ratio of oligomycin treated 143B cells: increased
143B cells [2]
  Proliferation rate of oligomycin treated 143B cells: increased proliferation of oligomycin treated cells
143B cells [3]
  Oxygen consumption of oligomycin treated cells: increased

## Nc1ncnc2nc[nH]c12 [adenine, reference compound]
143B CytB cells [4]
  Cell cycle distribution (DNA content): alleviated the slight accumulation of cells at the S/G2 transition
143B CytB cells [5]
  Proliferation rate of 143B CytB cells: restored proliferation for one doubling

## [H]/N=C(/N)N/C(=N/[H])NCCc1ccccc1 [phenformin, reference compound]
Jurkat cells [6]; [11]
  Other amino acids: without much effect on other amino acids
  Reduction of cellular aspartate: ~30 fold
Jurkat cells [6]; MDH1-null Jurkat cells, phenformin (10 μM) 24 hours
  Aspartate level: dropped to the same level as it did in wild type cells
Jurkat cells [6]; wild type Jurkat cells, 24-hour phenformin
  Fall of aspartate levels: ~3 fold
Jurkat cells [7]; GOT1-null Jurkat cells
  Aspartate synthesis from [U-13C]-L-glutamine: almost no generation of aspartate from labeled glutamine
Jurkat cells [7]; wild type Jurkat cells
  Aspartate synthesis from [U-13C]-L-glutamine: aspartate is mainly synthesized by reductive metabolism of glutamine in a GOT1-dependent manner; also recorded: aspartate synthesis dropped, and what remained came primarily from reductive glutamine metabolism with almost no contribution from the oxidative pathway
Jurkat cells [8]; 0.5 μM phenformin, pyruvate-free RPMI
  Proliferation of Jurkat cells: only mildly slowed proliferation
Jurkat cells [8]; higher concentrations of phenformin, 5 days
  Viability and proliferation of GOT1-null versus wild type Jurkat cells: GOT1-null cells die; also recorded: GOT1-null cells arrested and died, while the wild type counterparts did not
Jurkat cells [8]; low doses of phenformin, 5 days
  Proliferation of GOT1-null versus wild type Jurkat cells: inhibited the proliferation of GOT1-null cells to a much greater extent than that of wild type cells
[9]
  Sensitivity of GOT1-null versus wild type Raji and KMS-26 cells to phenformin: GOT1 loss sensitizes various human cell types to phenformin treatment; also recorded: far more sensitive to phenformin than their wild type counterparts
Jurkat cells [10]
  Oxygen consumption (respiration) of Jurkat cells: suppressed respiration as measured by oxygen consumption; also recorded: inhibits oxygen consumption of wild type and GOT1 null Jurkat cells
